Measurements: PubChem BioAssay AID434946 (Broad Institute, 2010)
Active and inactive are the calls of the source.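 How the source made its calls: active means compounds lowering the growth signal with a fitted EC50 no more than tenfold above the top dose; inconclusive means flat fit with partial effect, or a poor fit; inactive means the rest.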

Test system: NIH 3T3 fibroblast viability, Alamar Blue fluorescence, 48 h
Assay: mammalian fibroblast viability loss, compound alone – cell-based, alamar blue fluorescence, no fluconazole, cytotoxicity control for Candida fluconazole-potentiator project, dose response (AID 434946)

| SMILES | EC50 |
| --- | --- |
| Clc1ccc2c(c1)C(c1cccs1)=NNC(c1cccnc1)=N2 | > 26 µM (inactive) |
| Cc1ccc(Nc2nc(N)c([N+](=O)[O-])c(N3CCC(C)CC3)n2)cc1C | > 26 µM (inactive) |
| c1ccc2c(c1)OCC(CNc1ncnc3sccc13)O2 (configuration not stated) | > 26 µM (inactive) |
| CCc1ccc2c(c1)/C(=C/C(=O)c1cccs1)C(=O)N2 | > 26 µM (inactive) |
| O=C(Nc1nnc(SCc2ccc(Cl)cc2)s1)c1ccc2ccccc2n1 | > 26 µM (inactive) |
| Cc1oc2c(F)c(F)c(F)c(F)c2c1S(=O)(=O)Nc1cccc(C(F)(F)F)c1 | > 26 µM (inactive) |
| Cc1ccc(C(=O)c2coc3c2C(=O)C(=O)c2ccccc2-3)cc1 | > 26 µM (inactive) |
| O=C(Nc1nnc(-c2ccc3c(c2)CCCC3)o1)c1ccc(Cl)cc1Cl | 18.4 µM |
| O=C(Oc1c(Cl)cc(Cl)c2cccnc12)c1cccs1 | 1.98 µM |
| O=C1/C(=C\c2ccccc2)CCc2c1[nH]c1ccccc21 | > 26 µM (inactive) |
| Cc1ccc(/C=C/C(=O)c2ccccc(=O)c2O)cc1C | > 26 µM (inactive) |
| Nc1nccnc1C(=O)Nc1nnc(SCc2ccc(Cl)cc2)s1 | > 26 µM (inactive) |
| Cc1nc2ccccc2cc1OCc1ccc(F)cc1 | > 26 µM (inactive) |
| CC(C)N1CCc2c(sc(NC(=O)c3nc4ccccc4s3)c2C(N)=O)C1 | > 26 µM (inactive) |
| O=C(Nc1nnc(CCc2ccccc2)s1)c1ccco1 | > 26 µM (inactive) |
| COc1ccc(-n2nc(C(=O)NCC(=O)N3CCN(c4ccccc4)CC3)c3ccccc3c2=O)c(OC)c1 | > 26 µM (inactive) |
| CCOC(=O)c1c(-c2ccccc2Cl)cn2ccccc12 | > 26 µM (inactive) |
| COc1cc2c(cc1NC(=O)c1ccco1)CCCC2 | > 26 µM (inactive) |
| CCOC(=O)N1C(=O)C2(CCCCC2)N(c2ccc(C)cc2)C1=S | 0.888 µM |
| O=C(NNC1=C(C(=O)C(F)(F)F)CCC1)c1ccc(Cl)cc1 | > 26 µM (inactive) |
| CCCC(=O)NC(c1ccc(Cl)cc1)c1ccc2cccnc2c1O (configuration not stated) | 21.3 µM |
| Cc1ccc(C(=O)Nc2cccc(-c3cn4ccccc4n3)c2)cc1 | > 26 µM (inactive) |
| CC(C)COCc1ccc(O)c2ncccc12 | 19.5 µM |
| O=C(Nc1sc2c(c1C(=O)c1ccc(Cl)cc1)CCCC2)c1cccnc1 | > 26 µM (inactive) |
| COc1ccc(-c2nnc(NC(=O)c3ccc(F)cc3)o2)cc1 | > 26 µM (inactive) |
| O=C(Nc1nc(-c2ccccn2)cs1)c1ccc(Br)s1 | 11.9 µM |
| O=C(Nc1nnc(-c2ccco2)o1)c1ccc(Cl)cc1 | > 26 µM (inactive) |
